The nature of the data set: Relaxometric properties: longitudinal relaxivity r1p in human plasma. Format: physicochemical. The settings on record: expressed per mM gadolinium; for r1p at 0.47 T 37° C., human plasma: 0.47 T (20 MHz); for r1p at 1.41 T 37° C., human plasma: 1.41 T (60 MHz). As for the experimental part:
The relaxometric properties of some representative complex compounds according to the invention have been determined at different magnetic field strengths, e.g. including 0.47 and 1.41 T, at 37° C., in human plasma and compared with relaxivity values measured, at the same conditions, for some Gd-complex of the market having an analogous cyclic coordination cage.
The longitudinal water proton relaxation rate (R1=1/T1) was measured at 0.47 T with a Minispec MQ-20 spectrometer (Bruker Biospin, Germany) operating at a proton Larmor frequency of 20 MHz; MR experiments at 1.41 T were performed using a Minispec MQ-60 spectrometer (Bruker Biospin, Germany) operating at a proton Larmor frequency of 60 MHz.
All test articles were used as supplied and diluted in the selected medium (human plasma) by weighting the required amount of paramagnetic chelated complex to get a starting solution of 5 or 10 mM concentration in gadolinium.
Relaxivity Measurements Five different concentration samples (0.1, 0.25, 0.5, 0.75 and 1 mM in gadolinium) for each medium have been prepared by further dilution of the starting 5 or 10 mM solution.
Relaxivity measurements were performed at 0.47 T and 1.41 T at a preset temperature sample of 37° C., kept constant by means of a thermostatic bath connected to the sample holder of the spectrometer. The five sample solutions have been preliminary pre-heated at 37° C. in an external thermostatic bath and then left 10 minutes inside the internal bath to assure the stabilization of the temperature. Longitudinal relaxation time T1 was measured by means of a standard inversion recovery sequence, where the inversion time (TI) was varied from 10 ms to at least 5 times T1 in 15 steps. Statistical analysis (mono-exponential fitting for T1 measurement, linear fitting for the evaluation of longitudinal relaxivity) was performed by Mathematica® (Wolfram, USA). Errors on the estimated parameters were evaluated by the fitting procedure.
The relaxivity values r1p of some representative compounds according to the invention, obtained in human plasma at 37° C., are summarized in the following Table A, together with the structure of tested compounds and the strength of the applied magnetic field (in T), and compared with corresponding values measured for two commercial contrast agents in clinical practice having a macrocyclic chelating cage.

Take `O=C(O)CN1CCN(CC(=O)O)CCN(CC(O)CN(CCOCCOCCO)CC(O)CN2CCN(CC(=O)O)CCN(CC(=O)O)CCN(CC(=O)O)CC2)CCN(CC(=O)O)CC1` (stereo not drawn): the “r1p at 0.47 T 37° C., human plasma” value was found to be 10.9 mM⁻¹ s⁻¹ and the “r1p at 1.41 T 37° C., human plasma” value was determined as 10.4 mM⁻¹ s⁻¹.

On to `COCCOCCOCCOCCN(CC(O)CN1CCN(CC(=O)O)CCN(CC(=O)O)CCN(CC(=O)O)CC1)CC(O)CN1CCN(CC(=O)O)CCN(CC(=O)O)CCN(CC(=O)O)CC1` (stereo not drawn), for which the “r1p at 0.47 T 37° C., human plasma” value was found to be 10.6 mM⁻¹ s⁻¹ and the “r1p at 1.41 T 37° C., human plasma” value turned out to be 10.3 mM⁻¹ s⁻¹.

As for `O=C(O)CN1CCN(CC(=O)O)CCN(CC(O)CN(CC(O)CN2CCN(CC(=O)O)CCN(CC(=O)O)CCN(CC(=O)O)CC2)C(COCCOCCO)COCCOCCO)CCN(CC(=O)O)CC1` (stereo not drawn), the “r1p at 0.47 T 37° C., human plasma” value is 10.1 mM⁻¹ s⁻¹ and the “r1p at 1.41 T 37° C., human plasma” value is 9.8 mM⁻¹ s⁻¹.

`CC(O)CN1CCN(CC(=O)O)CCN(CC(=O)O)CCN(CC(=O)O)CC1` (stereo not drawn) (Gd complex, metal not drawn) [ProHance, reference compound]: the “r1p at 0.47 T 37° C., human plasma” value stood at 4.9 mM⁻¹ s⁻¹ and the “r1p at 1.41 T 37° C., human plasma” value came to 4.15 mM⁻¹ s⁻¹.

Take `COCCOCCOCCN(CCN(CCOCCOCCOC)CC(O)CN1CCN(CC(=O)O)CCN(CC(=O)O)CCN(CC(=O)O)CC1)CC(O)CN1CCN(CC(=O)O)CCN(CC(=O)O)CCN(CC(=O)O)CC1` (stereo not drawn) [Chelate Complex 9]: the “r1p at 0.47 T 37° C., human plasma” value came to 12.1 mM⁻¹ s⁻¹ and the “r1p at 1.41 T 37° C., human plasma” value was 11.5 mM⁻¹ s⁻¹.

`O=C(O)CN1CCN(CC(=O)O)CCN(CC(=O)O)CCN(CC(=O)O)CC1` [reference compound]: the “r1p at 0.47 T 37° C., human plasma” value was found to be 4.5 mM⁻¹ s⁻¹ and the “r1p at 1.41 T 37° C., human plasma” value came to 3.6 mM⁻¹ s⁻¹.

Values taken from patent US10793533B2, “Dimeric contrast agents” (BRACCO IMAGING S.P.A., priority 2016, dated 2020).
